IC50 data for 30 compounds are collected here from patent US9174980B2, “Heterocyclic compounds as inhibitors of leukotriene production” (Boehringer Ingelheim International GmbH, priority 2012, dated 2015).

Assay [1] concerns the target T1, recombinant human FLAP protein (Homo sapiens, UniProt P20292).
T1 construct: made in house; host or cells: Sf9 insect cells (membrane fraction, 100,000 x g pellet)
T1 sequence (P20292 1-161): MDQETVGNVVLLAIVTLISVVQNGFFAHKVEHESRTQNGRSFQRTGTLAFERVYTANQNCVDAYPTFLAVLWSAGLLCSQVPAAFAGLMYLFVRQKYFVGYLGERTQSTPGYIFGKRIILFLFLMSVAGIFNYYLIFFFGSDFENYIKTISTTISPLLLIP
Put plainly: FLAP binding assay (Scintillation Proximity Assay, displacement of [125I]L-691,831). Particulars: read-out: Human FLAP SPA Binding (IC50 nM). An outline of the steps: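 Membranes from sf9 cells expressing recombinant human FLAP (5 μg/well) on WGA SPA beads were incubated with compound and 0.08 nM [125I]L-691,831 in Tris pH 7.5 binding buffer, shaken 2 h. Displacement read by scintillation proximity; non-specific binding set with 10 μM unlabelled L-691,831.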
In general terms: Scintillation proximity formats need no separation of bound from free tracer.

For assay [2], the system named is synthesis of LTB4 in human whole blood. Put plainly: Human whole blood assay (calcimycin-stimulated LTB4 synthesis). It is filed as cell-based. The conditions noted are these: Homo sapiens; read-out: Human Whole Blood LTB4 Assay for FLAP (IC50 nM). An outline of the steps: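 Readout: plasma LTB4 by antibody-based HTRF. Compound added to heparinized human whole blood, 15 min 37° C; calcimycin 20 μM final (PBS pH 7.4), 30 min 37° C; spun 1500×g 5 min, plasma taken.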

SMILES strings stand for the structures.

For orientation: IC50 means the concentration that gives 50% inhibition.

On to `CC(C)(O)Cn1cc(-c2coc([C@](C)(c3ccc(-c4cnc(N)nc4)nc3)C3CC3)n2)cn1` [Example 211, 1-[4-(2-{(S)-1-[6-(2-Amino-pyrimidin-5-yl)-pyridin-3-yl]-1-cyclopropyl-ethyl}-oxazol-4-yl)-pyrazol-1-yl]-2-methyl-propan-2-ol], for which the IC50 in assay [1] is above 2000 nM; in assay [2], above 5000 nM.
In the same order, the values of `Nc1ncc(-c2ccc(C3(c4nnc(-c5ccccc5)[nH]4)CCOCC3)cc2)cn1` [Example 69, 5-{4-[4-(5-phenyl-4H-1,2,4-triazol-3-yl)tetrahydro-2H-pyran-4-yl]phenyl}pyrimidin-2-amine] are 120 nM and 3100 nM.
Regarding `Nc1ncc(-c2ccc(C3(c4nc(-c5cccnc5)no4)CCC3)cc2)cn1` [Example 92, 5-(4-{1-[3-(pyridin-3-yl)-1,2,4-oxadiazol-5-yl]cyclobutyl}phenyl)pyrimidin-2-amine], the IC50 in assay [1] is 9.1 nM; in assay [2] it was 840 nM.
On to `CC(C)C(C)(c1ccc(-c2cnc(N)nc2)cc1)c1nc2ccccc2[nH]1` (stereo not drawn) [Example 104, 5-{4-[2-(1H-benzimidazol-2-yl)-3-methylbutan-2-yl]phenyl}pyrimidin-2-amine], for which the IC50 in assay [1] worked out at 8.6 nM; in assay [2] it was 1900 nM.
Take `Nc1ncc(-c2ccc(C3(c4nnc(-c5ccc(F)cc5)[nH]4)CCC3)cn2)cn1` [Example 143, 5-(5-{1-[5-(4-fluorophenyl)-4H-1,2,4-triazol-3-yl]cyclobutyl}pyridin-2-yl)pyrimidin-2-amine]: the IC50 was 12 nM in assay [1] and 1500 nM in assay [2].
As to `CC(C)C(C)(c1ccc(OCc2ccccn2)cc1)c1cn(C)c2cc(C(=O)O)ccc12` (stereo not drawn) [Example 36, 23-[1,2-dimethyl-1-[4-(2-pyridylmethoxy)phenyl]propyl]-1-methyl-indole-6-carboxylic acid], the IC50 is 1.8 nM in assay [1] and 1900 nM in assay [2].
On the same counts, the results for `CC(C)C(C)(c1ccc(OCc2ccccn2)cc1)c1c[nH]c2cc(C(=O)O)ccc12` (stereo not drawn) [Example 64, 3-[1,2-dimethyl-1-[4-(2-pyridylmethoxy)phenyl]propyl]-1H-indole-6-carboxylic acid] are 0.85 nM and 1400 nM.
With `Nc1ncc(-c2ccc(C3(c4c[nH]c5c(C(=O)N6CC(O)C6)cccc45)CCC3)cc2)cn1` [Example 113, (3-{1-[4-(2-aminopyrimidin-5-yl)phenyl]cyclobutyl}-1H-indol-7-yl)(3-hydroxyazetidin-1-yl)methanone], the values for the IC50 in assay [1] and in assay [2] were 1.1 nM and 100 nM, respectively.
In the case of `COCCN(C)C(=O)c1cccc2c(C3(c4ccc(-c5cnc(N)nc5)cc4)CCC3)c[nH]c12` [Example 116, 3-{1-[4-(2-aminopyrimidin-5-yl)phenyl]cyclobutyl}-N-(2-methoxyethyl)-N-methyl-1H-indole-7-carboxamide], the IC50 in assay [1] was 2.5 nM; in assay [2] it was 270 nM.
In the same order, the values of `Cn1cc(-c2cc([C@@](C)(c3ccc(-c4cnc(N)nc4)nc3)C3CC3)no2)cn1` [Example 200] are 140 nM and 450 nM.
In the same order, the values of `Nc1ncc(-c2ccc(C3(c4nnc(-c5ccccc5)[nH]4)CCC3)cn2)cn1` [Example 121, 5-{5-[1-(5-phenyl-4H-1,2,4-triazol-3-yl)cyclobutyl]pyridin-2-yl}pyrimidin-2-amine] are 8.7 nM and 810 nM.
In the same order, the values of `Nc1ncc(-c2ccc(C3(c4c[nH]c5cc(C(=O)NC6CCS(=O)(=O)C6)ccc45)CCC3)cc2)cn1` (stereo not drawn) [Example 1, 3-{1-[4-(2-aminopyrimidin-5-yl)phenyl]cyclobutyl}-N-(1,1-dioxidotetrahydrothiophen-3-yl)-1H-indole-6-carboxamide] are 1.3 nM and 1300 nM.
Turning to `Nc1ncc(-c2ccc(C3(c4c[nH]c5c(C(=O)NCCO)cccc45)CCC3)cc2)cn1` [Example 119, 3-{1-[4-(2-aminopyrimidin-5-yl)phenyl]cyclobutyl}-N-(2-hydroxyethyl)-1H-indole-7-carboxamide], the values for the half-maximal inhibitory concentration (IC50) in assay [1] and in assay [2] were 1.5 nM and 170 nM, respectively.
In the case of `NC(=O)Cn1cc(C2(c3ccc(-c4cnc(N)nc4)cc3)CCC2)c2ccccc21` [Example 147], the IC50 is 7.9 nM in assay [1] and above 5000 nM in assay [2].
Turning to `CC(C)C(C)(c1ccc(-c2cnc(N)nc2)nc1)c1nc(-c2cnn(C)c2)no1` (stereo not drawn) [Example 22, 5-(5-{3-methyl-2-[3-(1-methyl-1H-pyrazol-4-yl)-1,2,4-oxadiazol-5-yl]butan-2-yl}pyridin-2-yl)pyrimidin-2-amine], the values for the IC50 in assay [1] and in assay [2] were 44 nM and 710 nM, respectively.
Take `Nc1ncc(-c2ccc(C3(c4c[nH]c5c(C(=O)N6CCC6)cccc45)CCC3)cc2)cn1` [Example 149, (3-{1-[4-(2-aminopyrimidin-5-yl)phenyl]cyclobutyl}-1H-indol-7-yl)(azetidin-1-yl)methanone]: the values for the half-maximal inhibitory concentration (IC50) in assay [1] and in assay [2] were 2 nM and 110 nM, respectively.
Regarding `Cc1cn(C(C)(c2ccc(-c3cnc(N)nc3)cc2)C(C)C)c2ccccc12` (stereo not drawn) [Example 43, 5-{4-[3-methyl-2-(3-methyl-1H-indol-1-yl)butan-2-yl]phenyl}pyrimidin-2-amine], the values for the IC50 in assay [1] and in assay [2] were 30 nM and 1500 nM, respectively.
In the same order, the values of `COc1cccc2c1c(C(C)(c1ccc(-c3cnc(N)nc3)cc1)C(C)C)cn2Cc1ccccn1` (stereo not drawn) [Example 50, 5-(4-{2-[4-methoxy-1-(pyridin-2-ylmethyl)-1H-indol-3-yl]-3-methylbutan-2-yl}phenyl)pyrimidin-2-amine] are 260 nM and above 5000 nM.
As to `COCC(C)(c1ccc(-c2cnc(N)nc2)cc1)c1cn(CC(=O)O)c2ncccc12` (stereo not drawn) [Example 55, (3-{2-[4-(2-aminopyrimidin-5-yl)phenyl]-1-methoxypropan-2-yl}-1H-pyrrolo[2,3-b]pyridin-1-yl)acetic acid], the IC50 in assay [1] was 1100 nM; in assay [2] it was above 5000 nM.
In the same order, the values of `CN(CCO)C(=O)c1cccc2c(C3(c4ccc(-c5cnc(N)nc5)cc4)CCC3)c[nH]c12` [Example 115, 3-{1-[4-(2-aminopyrimidin-5-yl)phenyl]cyclobutyl}-N-(2-hydroxyethyl)-N-methyl-1H-indole-7-carboxamide] are 2.6 nM and 1100 nM.
On the same counts, the results for `CS(=O)(=O)c1ccc2c(C3(c4ccc(-c5cnc(N)nc5)cc4)CCC3)c[nH]c2c1` [Example 90, 5-(4-{1-[6-(methylsulfonyl)-1H-indol-3-yl]cyclobutyl}phenyl)pyrimidin-2-amine] are 0.75 nM and 170 nM.
Take `Nc1ncc(-c2ccc(C3(c4nc5ncccc5[nH]4)CCC3)cc2)cn1` [Example 125, 5-{4-[1-(1H-imidazo[4,5-b]pyridin-2-yl)cyclobutyl]phenyl}pyrimidin-2-amine]: the IC50 in assay [1] turned out to be 250 nM; in assay [2], 3400 nM.
On to `Cc1ccc(-c2cnc(C3(c4ccc(-c5cnc(N)nc5)cc4)CCC3)s2)cn1` [Example 15, 5-(4-{1-[5-(6-methylpyridin-3-yl)-1,3-thiazol-2-yl]cyclobutyl}phenyl)pyrimidin-2-amine], for which the IC50 was determined as 1.8 nM in assay [1] and 220 nM in assay [2].
In the case of `CN(C)C(=O)Cn1cc(-c2coc([C@](C)(c3ccc(-c4cnc(N)nc4)cc3)C3CC3)n2)cn1` [Example 196, 2-[4-(2-{(1S)-1-[4-(2-aminopyrimidin-5-yl)phenyl]-1-cyclopropylethyl}-1,3-oxazol-4-yl)-1H-pyrazol-1-yl]-N,N-dimethylacetamide], the IC50 in assay [1] is 380 nM; in assay [2], 2000 nM.
Regarding `Cn1cc(-c2coc([C@@](C)(c3ccc(-c4cnc(N)nc4)nc3)C3CC3)n2)cn1` [Example 207, 5-(5-{(R)-1-Cyclopropyl-1-[4-(1-methyl-1H-pyrazol-4-yl)-oxazol-2-yl]-ethyl}-pyridin-2-yl)-pyrimidin-2-ylamine], the values for the IC50 in assay [1] and in assay [2] were 110 nM and 220 nM, respectively.
On the same counts, the results for `Nc1ncc(-c2ccc(C3(c4nc5ccccc5o4)CCC3)cc2)cn1` [Example 127, 5-{4-[1-(1,3-benzoxazol-2-yl)cyclobutyl]phenyl}pyrimidin-2-amine] are 7.2 nM and 1900 nM.
In the same order, the values of `Cc1cc(CN(C)C(=O)c2cccc3c(C4(c5ccc(-c6cnc(N)nc6)cc5)CCC4)c[nH]c23)no1` [Example 17, 3-{1-[4-(2-aminopyrimidin-5-yl)phenyl]cyclobutyl}-N-methyl-N-[(5-methyl-1,2-oxazol-3-yl)methyl]-1H-indole-7-carboxamide] are 3.4 nM and 250 nM.
With `Nc1ncc(-c2ccc(C3(c4nc5ccccc5s4)CCC3)cn2)cn1` [Example 140, 5-{5-[1-(1,3-benzothiazol-2-yl)cyclobutyl]pyridin-2-yl}pyrimidin-2-amine], the results for the IC50 in assay [1] and in assay [2] were 10 nM and above 5000 nM, respectively.
In the case of `CC(C)C(C)(c1ccc(-c2cnc(N)nc2)cc1)c1n[nH]c(-c2ccccc2)n1` (stereo not drawn) [Example 96, 5-{4-[3-methyl-2-(5-phenyl-1H-1,2,4-triazol-3-yl)butan-2-yl]phenyl}pyrimidin-2-amine], the IC50 came to 1.4 nM in assay [1] and 240 nM in assay [2].
As for `Nc1ncc(-c2ccc(C3(c4ncc(-c5cn[nH]c5)s4)CCC3)cc2)cn1` [Example 178, 5-(4-{1-[5-(1H-pyrazol-4-yl)-1,3-thiazol-2-yl]cyclobutyl}phenyl)pyrimidin-2-amine], the IC50 in assay [1] was 2.9 nM; in assay [2] it was 81 nM.
